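Growth conditions: 96-well plates. Treatment: test compound, 48 hours, 5 concentrations. Analysis: linear interpolation between bracketing concentrations; unreached endpoints set to highest concentration. At the GI50, growth is halved. TGI marks complete inhibition of growth.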
How the values were obtained:
Assay in all cases: DTP human tumour cell line panel, 48 h
[1] = tested on: 786-0 renal
[2] = tested on: A498 renal
[3] = tested on: A549 NSCLC
[4] = tested on: ACHN renal
[5] = tested on: BT-549 breast
[6] = tested on: CAKI-1 renal
[7] = tested on: CCRF-CEM leukemia
[8] = tested on: COLO 205 colon
[9] = tested on: DU-145 prostate
[10] = tested on: EKVX NSCLC
[11] = tested on: HCC-2998 colon
[12] = tested on: HCT-116 colon
[13] = tested on: HCT-15 colon
[14] = tested on: HL-60(TB) leukemia
[15] = tested on: HOP-62 NSCLC
[16] = tested on: HOP-92 NSCLC
[17] = tested on: HS 578T breast
[18] = tested on: HT29 colon
[19] = tested on: IGROV1 ovarian
[20] = tested on: K-562 leukemia
[21] = tested on: KM12 colon
[22] = tested on: LOX IMVI melanoma
[23] = tested on: M14 melanoma
[24] = tested on: MALME-3M melanoma
[25] = tested on: MCF7 breast
[26] = tested on: MDA-MB-231 breast
[27] = tested on: MDA-MB-435
[28] = tested on: MDA-MB-468 breast
[29] = tested on: MOLT-4 leukemia
[30] = tested on: NCI-H226 lung
[31] = tested on: NCI-H23 lung
[32] = tested on: NCI-H522 lung
[33] = tested on: NCI/ADR-RES ovarian
[34] = tested on: OVCAR-3 ovarian
[35] = tested on: OVCAR-4 ovarian
[36] = tested on: OVCAR-5 ovarian
[37] = tested on: OVCAR-8 ovarian
[38] = tested on: PC-3 prostate
[39] = tested on: RXF 393 renal
[40] = tested on: SF-268 CNS
[41] = tested on: SF-295 CNS
[42] = tested on: SF-539 CNS
[43] = tested on: SK-MEL-2 melanoma
[44] = tested on: SK-MEL-28 melanoma
[45] = tested on: SK-MEL-5 melanoma
[46] = tested on: SK-OV-3 ovarian
[47] = tested on: SN12C renal
[48] = tested on: SNB-19 CNS
[49] = tested on: SNB-75 CNS
[50] = tested on: SW-620 colon
[51] = tested on: T-47D breast
[52] = tested on: TK-10 renal
[53] = tested on: U251 CNS
[54] = tested on: UACC-257 melanoma
[55] = tested on: UACC-62 melanoma
[56] = tested on: UO-31 renal
[57] = tested on: NCI-H460 lung
[58] = tested on: RPMI-8226 leukemia
[59] = tested on: SR leukemia

Structure (SMILES): O=C(NN1C(=O)/C(=C/C=C/c2ccc([N+](=O)[O-])o2)SC1=S)c1ccncc1
- GI50 [1]: 0.96 µM
- TGI [1]: 2.39 µM
- GI50 [2]: 17.1 µM
- TGI [2]: 31 µM
- GI50 [3]: 2.86 µM
- TGI [3]: 10.8 µM
- GI50 [4]: 1.46 µM
- TGI [4]: 2.77 µM
- GI50 [5]: 0.495 µM
- TGI [5]: 1.66 µM
- GI50 [6]: 1.47 µM
- TGI [6]: 2.82 µM
- GI50 [7]: 0.346 µM
- TGI [7]: 3.57 µM
- GI50 [8]: 1.52 µM
- TGI [8]: 2.96 µM
- GI50 [9]: 1.96 µM
- TGI [9]: 4.8 µM
- GI50 [10]: 1.48 µM
- TGI [10]: 2.89 µM
- GI50 [11]: 1.77 µM
- TGI [11]: 3.19 µM
- GI50 [12]: 0.239 µM
- TGI [12]: 0.565 µM
- GI50 [13]: 0.184 µM
- TGI [13]: 0.404 µM
- GI50 [14]: 1.92 µM
- TGI [14]: 4.83 µM
- GI50 [15]: 1.58 µM
- TGI [15]: 3.14 µM
- GI50 [16]: 1.65 µM
- TGI [16]: 3.35 µM
- GI50 [17]: 1.74 µM
- TGI [17]: 8.2 µM
- GI50 [18]: 1.65 µM
- TGI [18]: 3.54 µM
- GI50 [19]: 1.39 µM
- TGI [19]: 2.7 µM
- GI50 [20]: 0.294 µM
- TGI [20]: > 100 µM
- GI50 [21]: 1.63 µM
- TGI [21]: 4.01 µM
- GI50 [22]: 0.203 µM
- TGI [22]: 0.44 µM
- GI50 [23]: 0.547 µM
- TGI [23]: 1.93 µM
- GI50 [24]: 0.24 µM
- TGI [24]: 0.541 µM
- GI50 [25]: 0.451 µM
- TGI [25]: 2.07 µM
- GI50 [26]: 0.655 µM
- TGI [26]: 1.94 µM
- GI50 [27]: 0.634 µM
- TGI [27]: 2.22 µM
- GI50 [28]: 1.2 µM
- TGI [28]: 2.64 µM
- GI50 [29]: 0.403 µM
- TGI [29]: 2.21 µM
- GI50 [30]: 1.19 µM
- TGI [30]: 4.02 µM
- GI50 [31]: 1.23 µM
- TGI [31]: 2.67 µM
- GI50 [32]: 0.189 µM
- TGI [32]: 0.414 µM
- GI50 [33]: 1.42 µM
- TGI [33]: 7.08 µM
- GI50 [34]: 1.28 µM
- TGI [34]: 3.01 µM
- GI50 [35]: 1.62 µM
- TGI [35]: 3.27 µM
- GI50 [36]: 1.9 µM
- TGI [36]: 3.38 µM
- GI50 [37]: 0.354 µM
- TGI [37]: 3.22 µM
- GI50 [38]: 1.93 µM
- TGI [38]: 4.96 µM
- GI50 [39]: 1.26 µM
- TGI [39]: 2.65 µM
- GI50 [40]: 1.69 µM
- TGI [40]: 3.95 µM
- GI50 [41]: 1.76 µM
- TGI [41]: 3.27 µM
- GI50 [42]: 0.402 µM
- TGI [42]: 1.45 µM
- GI50 [43]: 0.584 µM
- TGI [43]: 2.02 µM
- GI50 [44]: 1.54 µM
- TGI [44]: 2.98 µM
- GI50 [45]: 1.05 µM
- TGI [45]: 2.24 µM
- GI50 [46]: 3.03 µM
- TGI [46]: 9.27 µM
- GI50 [47]: 0.369 µM
- TGI [47]: 1.62 µM
- GI50 [48]: 1.8 µM
- TGI [48]: 3.93 µM
- GI50 [49]: 1.33 µM
- TGI [49]: 7 µM
- GI50 [50]: 0.274 µM
- TGI [50]: 0.739 µM
- GI50 [51]: 1.73 µM
- TGI [51]: 4.16 µM
- GI50 [52]: 1.63 µM
- TGI [52]: 3.03 µM
- GI50 [53]: 1.03 µM
- TGI [53]: 2.66 µM
- GI50 [54]: 1.53 µM
- TGI [54]: 3.31 µM
- GI50 [55]: 0.377 µM
- TGI [55]: 1.45 µM
- GI50 [56]: 1.16 µM
- TGI [56]: 2.39 µM

Structure (SMILES): C[C@H](Nc1nc(NCCc2ccccc2)nc2ccccc12)c1ccccc1
- GI50 [1]: 1.48 µM
- TGI [1]: 2.84 µM
- GI50 [2]: 1.45 µM
- TGI [2]: 3.37 µM
- GI50 [3]: 1.76 µM
- TGI [3]: 6.18 µM
- GI50 [4]: 1.72 µM
- TGI [4]: 3.81 µM
- GI50 [5]: 1.33 µM
- TGI [5]: 2.64 µM
- GI50 [6]: 1.36 µM
- TGI [6]: 2.73 µM
- GI50 [7]: 1.95 µM
- TGI [7]: 7.66 µM
- GI50 [8]: 1.15 µM
- TGI [8]: 2.43 µM
- GI50 [9]: 2.48 µM
- TGI [9]: 6.95 µM
- GI50 [10]: 1.42 µM
- TGI [10]: 3.21 µM
- GI50 [11]: 1.4 µM
- TGI [11]: 2.7 µM
- GI50 [12]: 1.26 µM
- TGI [12]: 2.51 µM
- GI50 [13]: 1.42 µM
- TGI [13]: 2.9 µM
- GI50 [14]: 1.4 µM
- TGI [14]: 3.98 µM
- GI50 [15]: 1.52 µM
- TGI [15]: 2.93 µM
- GI50 [16]: 1.08 µM
- TGI [16]: 2.47 µM
- GI50 [17]: 1.45 µM
- TGI [17]: 3.46 µM
- GI50 [18]: 1.26 µM
- TGI [18]: 2.96 µM
- GI50 [19]: 1.55 µM
- TGI [19]: 3.26 µM
- GI50 [20]: 1.04 µM
- TGI [20]: 3.62 µM
- GI50 [21]: 1.78 µM
- TGI [21]: 3.73 µM
- GI50 [22]: 1.59 µM
- TGI [22]: 3.01 µM
- GI50 [23]: 1.53 µM
- TGI [23]: 2.92 µM
- GI50 [24]: 1.4 µM
- TGI [24]: 2.78 µM
- GI50 [25]: 1.47 µM
- TGI [25]: 2.99 µM
- GI50 [26]: 1.68 µM
- TGI [26]: 3.1 µM
- GI50 [27]: 1.37 µM
- TGI [27]: 2.73 µM
- GI50 [28]: 1.13 µM
- TGI [28]: 2.45 µM
- GI50 [29]: 1.5 µM
- TGI [29]: 3.64 µM
- GI50 [30]: 1.45 µM
- TGI [30]: 3.04 µM
- GI50 [31]: 1.44 µM
- TGI [31]: 2.9 µM
- GI50 [57]: 1.35 µM
- TGI [57]: 2.83 µM
- GI50 [32]: 1.5 µM
- TGI [32]: 3.09 µM
- GI50 [34]: 1.34 µM
- TGI [34]: 2.98 µM
- GI50 [35]: 1.68 µM
- TGI [35]: 5.9 µM
- GI50 [36]: 1.63 µM
- TGI [36]: 3.42 µM
- GI50 [37]: 1.4 µM
- TGI [37]: 2.82 µM
- GI50 [38]: 1.37 µM
- TGI [38]: 3.27 µM
- GI50 [58]: 1.4 µM
- TGI [58]: 4.17 µM
- GI50 [39]: 1.07 µM
- TGI [39]: 2.31 µM
- GI50 [40]: 2.07 µM
- TGI [40]: 6.31 µM
- GI50 [41]: 1.46 µM
- TGI [41]: 2.79 µM
- GI50 [42]: 1.7 µM
- TGI [42]: 3.13 µM
- GI50 [43]: 1.37 µM
- TGI [43]: 2.71 µM
- GI50 [44]: 1.47 µM
- TGI [44]: 2.8 µM
- GI50 [45]: 1.37 µM
- TGI [45]: 2.66 µM
- GI50 [46]: 1.56 µM
- TGI [46]: 3 µM
- GI50 [47]: 1.76 µM
- TGI [47]: 4.13 µM
- GI50 [48]: 2.02 µM
- TGI [48]: 5.56 µM
- GI50 [49]: 0.563 µM
- TGI [49]: 3.49 µM
- GI50 [59]: 1.46 µM
- TGI [59]: 3.51 µM
- GI50 [50]: 1.4 µM
- TGI [50]: 2.88 µM
- GI50 [51]: 1.42 µM
- TGI [51]: 3.66 µM
- GI50 [52]: 1.93 µM
- TGI [52]: 5.44 µM
- GI50 [53]: 1.44 µM
- TGI [53]: 2.83 µM
- GI50 [54]: 1.52 µM
- TGI [54]: 3.04 µM
- GI50 [55]: 1.53 µM
- TGI [55]: 2.9 µM
- GI50 [56]: 1.22 µM
- TGI [56]: 2.53 µM
